Assay results: article PMC11858513, “Antibiofilm Activities of Tritrpticin Analogs Against Pathogenic Pseudomonas aeruginosa PA01 Strains” (Molecules, 2025)
Converted amounts (≈) assume the structure as drawn. Read-outs that look alike come from different tables or passages of the source. Residues, ends and D or L forms follow the SMILES beside them.

Legend:
[1] = system: P. aeruginosa PAO1 GFP; test: MIC against planktonic cells, absorbance at 600 nm; format: cell-based, Pseudomonas aeruginosa; conditions: Table 2, BM2 medium, absorbance 600 nm, mean of three biological replicates
Procedure: (§1) Figure 1 The MIC (A), MBIC (B) and MBEC (C) values for the tritrpticin analog peptides were assessed against Pa PAO1 GFP. The MIC values were determined by measuring the absorbance of bacterial cells at 600 nm. The MBIC and MBEC values were determined by recording the fluorescence at 480 nm and 530 nm from the biofilms of GFP-expressing PAO1. Three biological replicates were run for each test sample, and the mean was calculated for the recorded absorption or fluorescence values. In the graphs, the error bars represent the standard deviation (±SD).
(§2) Figure 2 The MIC (A), MBIC (B) and MBEC (C) values for the tritrpticin-Lys derivative peptides were assessed against Pa PAO1 GFP. The MIC values were determined by measuring the absorbance of bacterial cells at 600 nm. The MBIC and MBEC values were determined by recording the fluorescence at 480 nm and 530 nm from the biofilms of GFP-expressing PAO1. Three replicates were run for each sample, the values were averaged and the error bars represent the standard deviation (±SD).
(§3) The methods to determine the MIC, MBIC and MBEC have been described in detail in our previous publication. The green fluorescent protein (GFP)-producing P. aeruginosa and S. aureus strains that were used in this work were also described in the earlier publication. Fluorescence detection was used as the main method to estimate the number of cells entrapped in the biofilm matrix. The methodology used for evaluation of the antibiofilm properties against an original Pseudomonas PA01 strain by crystal violet dye staining and the use of the Calgary biofilm device has been described elsewhere. The regular PA01 strain was provided by Dr. J. Harrison, Calgary. All measurements were carried out on an Eppendorf AF2200 plate reader. Every 96-well plate included controls for bacterial cell growth without peptide treatment and media alone. All measurements were carried out in triplicate, and the values in the figures represent the average and the error bars are standard deviation.

[2] = system: P. aeruginosa PAO1 GFP; test: MBIC, prevention of biofilm formation, GFP fluorescence method; format: cell-based, Pseudomonas aeruginosa; conditions: Table 2, BM2 medium, mean of three biological replicates
Procedure: as §1, §2, §3

[3] = system: P. aeruginosa PAO1 GFP; test: MBEC, biofilm eradication, GFP fluorescence method; format: cell-based, Pseudomonas aeruginosa; conditions: Table 2, BM2 medium, mean of three biological replicates
Procedure: as §1, §2, §3

[4] = system: S. aureus GFP; test: MIC against planktonic cells, absorbance at 600 nm; format: cell-based, Staphylococcus aureus; conditions: Table 4; Sa GFP, 10% TSB and 0.1% glucose; absorbance 600 nm; mean of three biological replicates
Procedure: as §1, with “3” for “1”, “Sa” for “Pa PAO1”, “Sa.” for “PAO1.”
as §3

[5] = system: S. aureus GFP; test: MBIC, GFP fluorescence method; format: cell-based, Staphylococcus aureus; conditions: Table 4, Sa GFP, 10% TSB and 0.1% glucose, mean of three biological replicates
Procedure: as §1, with “3” for “1”, “Sa” for “Pa PAO1”, “Sa.” for “PAO1.”
as §3

[6] = system: S. aureus GFP; test: MBEC, GFP fluorescence method; format: cell-based, Staphylococcus aureus; conditions: Table 4, Sa GFP, 10% TSB and 0.1% glucose, mean of three biological replicates
Procedure: as §1, with “3” for “1”, “Sa” for “Pa PAO1”, “Sa.” for “PAO1.”
as §3

[7] = system: S. aureus GFP; format: cell-based, Staphylococcus aureus; conditions: Table 4; Sa GFP; lowest concentration of peptide with no bacterial growth seen on the spot agar plate
Text: as §3

[8] = system: P. aeruginosa PAO1; format: cell-based, Pseudomonas aeruginosa; conditions: Table 5; regular PAO1 (no GFP), 1x BM2; absorbance 600 nm; mean of three biological replicates
Procedure: (§4) Figure 4 The MIC (A), MBIC (B) and MBRC (C) values for the peptides were assessed against P. aeruginosa PAO1 in the presence of 1× BM2. The inhibition of planktonic cells, the inhibition of biofilm cells and the reduction in biofilm cells were determined for the peptides by recording of the planktonic cells at 600 nm and quantification of biofilms formed by Pa PAO1 using crystal violet at 595 nm, respectively. Three biological replicates were run for each test sample, and the mean was calculated for the recorded absorption values. Data points with error bars indicate the standard deviation (±SD).
(§5) Figure 6 The MIC (A), MBIC (B) and MBEC (C) values for the tritrpticin-Lys derivatives against P. aeruginosa PAO1 were assessed by the crystal violet (CV) assay for the measurement of inhibition of biofilm formation and eradication of biofilm cells, respectively. The biofilm cells were rinsed, stained with 0.1% crystal violet for 15 min and then rinsed again. The CV was released from biofilm cells by the addition of 95% ethanol and quantified by reading on a spectrometer at 595 nm. Three replicates were run for each sample, the values were averaged and the error bars represent the standard deviation (±SD).
as §3

[9] = system: P. aeruginosa PAO1; format: cell-based
Procedure: (§6) We note the close agreement with the MBIC and MBEC values determined by the fluorescence and CV methods, similar to what we found in our previous work for an S. aureus MRSA strain [23]. We also re-evaluated the MBEC values that are measured using the Calgary biofilm device (CBD), where biofilms form on pegs, rather than at the bottom of the 96-well plates. […] In particular, we find that the single Pro9Ala Tritrp-P9A-substituted version has better MIC, MBIC and MBEC activities than the parent peptide as well as the Tritrp-P59A analog with both prolines substituted to Ala.
as §4, §5, §3

[10] = system: P. aeruginosa PAO1; format: cell-based, Pseudomonas aeruginosa; conditions: Table 5; PAO1, 1x BM2; biofilms on pegs, cells plated and counted; three biological replicates
Procedure: as §6
Figure 5 The MBEC values for the peptides were assessed against P. aeruginosa PAO1 in the presence of 1× BM2 medium. The eradication of biofilm cells was determined for the peptides using the counting of biofilm cells formed by Pa PAO1. Three biological replicates were run for each test sample, and the mean was calculated for counted cell values. Data points with error bars indicate the standard deviation (±SD).
as §3

[11] = Table 5, PAO1, 1x BM2, crystal violet at 595 nm, mean of three biological replicates
[12] = Table 5, minimum biofilm reduction concentration, PAO1, 1x BM2, crystal violet at 595 nm, mean of three biological replicates

Row | SMILES | MIC at 600 nm LD50 [1] [µM] | MIC at 600 nm LD90 [1] [µM] | MBIC at 488 and 530 nm LD50 [2] [µmol/L] | MBIC at 488 and 530 nm LD90 [2] [µmol/L] | MBEC at 488 and 530 nm LD50 [3] [µmol/L] | MBEC at 488 and 530 nm LD90 [3] [µmol/L] | MIC at 600 nm LD50 [4] [µM] | MIC at 600 nm LD90 [4] [µM] | MBIC at 488 and 530 nm LD50 [5] [µmol/L] | MBIC at 488 and 530 nm LD90 [5] [µmol/L] | MBEC at 488 and 530 nm LD50 [6] [µmol/L] | MBEC at 488 and 530 nm LD90 [6] [µmol/L] | MBC Agar Plate [7] [µM] | MIC at 600 nm LD50 [8] [µM] | MIC at 600 nm LD90 [8] [µM] | MBIC (CV at 595 nm) LD50 [9, 11] [µmol/L] | MBIC (CV at 595 nm) LD90 [9, 11] [µmol/L] | MBRC (CV at 595 nm) LD90 [9, 12] [µmol/L] | MBEC from Calgary Biofilm Device (CBD) LD50 [10] [µmol/L] | MBEC from Calgary Biofilm Device (CBD) LD90 [10] [µmol/L] | also measured
1 | CC(C)[C@H](NC(=O)[C@@H]1CCCN1C(=O)[C@@H](N)Cc1ccccc1)C(=O)N[C@H](C(=O)N[C@@H](Cc1c[nH]c2ccccc12)C(=O)N[C@@H](CCCNC(=N)N)C(=O)N[C@@H](Cc1c[nH]c2ccccc12)C(=O)N[C@@H](Cc1c[nH]c2ccccc12)C(=O)N[C@@H](CCCNC(=N)N)C(=O)N[C@@H](Cc1c[nH]c2ccccc12)C(=O)N[C@@H](Cc1c[nH]c2ccccc12)C(=O)N[C@@H](CCCNC(=N)N)C(=O)NCC(N)=O)[C@@H](C)O [PuroA-Arg, reference compound] (H-FPVTWRWWRWWRG-NH2) | 8 (≈ 15.3 µg/mL) | 16 (≈ 30.7 µg/mL) | 8 | 8 | 32 | 128 | 4 (≈ 7.67 µg/mL) | 4 (≈ 7.67 µg/mL) | 4 | 4 | 8 | 16 | 8 (≈ 15.3 µg/mL) | 8 (≈ 15.3 µg/mL) | 16 (≈ 30.7 µg/mL) | 16 | 16 | 32 | 16 | 64 | MBRC (CV at 595 nm) LD50 [9, 12]: 32 µmol/L
2 | CC(C)[C@H](NC(=O)[C@@H]1CCCN1C(=O)[C@@H](N)Cc1ccccc1)C(=O)N[C@H](C(=O)N[C@@H](Cc1c[nH]c2ccccc12)C(=O)N[C@@H](CCCCN)C(=O)N[C@@H](Cc1c[nH]c2ccccc12)C(=O)N[C@@H](Cc1c[nH]c2ccccc12)C(=O)N[C@@H](CCCCN)C(=O)N[C@@H](Cc1c[nH]c2ccccc12)C(=O)N[C@@H](Cc1c[nH]c2ccccc12)C(=O)N[C@@H](CCCCN)C(=O)NCC(N)=O)[C@@H](C)O [PuroA-Lys, reference compound] (H-FPVTWKWWKWWKG-NH2) | 4 (≈ 7.34 µg/mL) | 8 (≈ 14.7 µg/mL) | 4 | 8 | 64 | 64 | 2 (≈ 3.67 µg/mL) | 4 (≈ 7.34 µg/mL) | 2 | 4 | 8 | 8 | 8 (≈ 14.7 µg/mL) | 8 (≈ 14.7 µg/mL) | 16 (≈ 29.3 µg/mL) | 8 | 16 | 32 | 32 | 64 | MBRC (CV at 595 nm) LD50 [9, 12]: 32 µmol/L
3 | CC(C)C[C@H](NC(=O)[C@H](Cc1ccccc1)NC(=O)[C@@H]1CCCN1C(=O)[C@H](Cc1c[nH]c2ccccc12)NC(=O)[C@H](Cc1c[nH]c2ccccc12)NC(=O)[C@H](Cc1c[nH]c2ccccc12)NC(=O)[C@@H]1CCCN1C(=O)[C@H](Cc1ccccc1)NC(=O)[C@H](CCCNC(=N)N)NC(=O)[C@H](CCCNC(=N)N)NC(=O)[C@@H](N)C(C)C)C(=O)N[C@@H](CCCNC(=N)N)C(=O)N[C@@H](CCCNC(=N)N)C(N)=O [Tritrp-Arg] | 4 (≈ 7.61 µg/mL) | 8 (≈ 15.2 µg/mL) | 2 | 8 | 8 | 16 | 0.5 (≈ 0.951 µg/mL) | 2 (≈ 3.8 µg/mL) | 1 | 2 | 1 | 2 | 2 (≈ 3.8 µg/mL) | 4 (≈ 7.61 µg/mL) | 8 (≈ 15.2 µg/mL) | – | 8 | 32 | 16 | 32 | MBIC (CV at 595 nm) LD50 ([9]; PAO1): 4 µmol/L; MBRC (CV at 595 nm) LD50 ([9]; PAO1): 32 µmol/L
4 | CC(C)C[C@H](NC(=O)[C@H](Cc1ccccc1)NC(=O)[C@@H]1CCCN1C(=O)[C@H](Cc1c[nH]c2ccccc12)NC(=O)[C@H](Cc1c[nH]c2ccccc12)NC(=O)[C@H](Cc1c[nH]c2ccccc12)NC(=O)[C@@H]1CCCN1C(=O)[C@H](Cc1ccccc1)NC(=O)[C@H](CCCCN)NC(=O)[C@H](CCCCN)NC(=O)[C@@H](N)C(C)C)C(=O)N[C@@H](CCCCN)C(=O)N[C@@H](CCCCN)C(N)=O [Tritrp-Lys] (H-VKKFPWWWPFLKK-NH2) | 32 (≈ 57.3 µg/mL) | 32 (≈ 57.3 µg/mL) | 16 | 32 | 64 | 64 | 1 (≈ 1.79 µg/mL) | 2 (≈ 3.58 µg/mL) | 2 | 2 | 1 | 2 | 4 (≈ 7.16 µg/mL) | 32 (≈ 57.3 µg/mL) | 32 (≈ 57.3 µg/mL) | 32 | 32 | 64 | 128 | 128 | MBRC (CV at 595 nm) LD50 ([9]; PAO1): 64 µmol/L
